Assay results as given in the NIST ThermoML archive (doi:10.1016/j.jct.2019.03.036).
Numbers after ± are expanded uncertainties. Blank lines part the entries; values can stand above or below the molecule they belong to.

Settings: Liquid, Ebulliometric method (Recirculating still)

vapor or sublimation pressure (463.27 K): 101.3 ± 3.6 kPa
SMILES: C[S+](C)[O-] [dimethyl sulfoxide]

vapor or sublimation pressure (350.29 K): 101.3 ± 3.6 kPa
SMILES: CCOC(C)=O [ethyl acetate]

vapor or sublimation pressure (374.62 K): 101.3 ± 3.6 kPa
SMILES: CCCOC(C)=O [propyl ethanoate]
